In patent US12251422B2, “Compositions and methods for treating neurological and other disorders” (Rush University Medical Center, priority 2018, dated 2025):

Legend:
[1] = biological target: T1, cTLR2 protein (Mus musculus, UniProt Q9QUN7); assay: Thermal shift assay of cTLR2 with TIDM peptides; format: binding; settings: 10 μM peptide
T1 construct: The cTLR2 (640-784 amino acids) tagged with c-myc was cloned in lenti vector; made in house; host or cells: HEK293 cells (lentiviral expression)
Protocol: Thermal shift assays were performed in an Applied Biosystems 7500 standard real-time thermal cycler machine as described before (52, 53). For each reaction, purified protein (0.5 μg to 1 μg) was added to 18 μL of thermal shift buffer provided with the kit, and 1-2 μL of dye. Reaction was set 96 well PCR plate in the dark and then placed in the thermal cycler machine using the following two-stage program [(25° C. for 2 mins) 1 cycle; ([…]) 70 cycles; auto increment 1° C. for both stages]. The filter was set at ROX with no quencher filter and no passive filter.

[2] = biological target: T2, C-terminal TIR domain of TLR2 protein (cTLR2) (Mus musculus, UniProt Q9QUN7); assay: Surface plasmon resonance binding of TIDM peptides to cTLR2
T2 construct: The cTLR2 (640-784 amino acids) tagged with c-myc was cloned in lenti vector; made in house; host or cells: HEK293 cells (lentiviral expression)
T2 sequence (Q9QUN7 640-784): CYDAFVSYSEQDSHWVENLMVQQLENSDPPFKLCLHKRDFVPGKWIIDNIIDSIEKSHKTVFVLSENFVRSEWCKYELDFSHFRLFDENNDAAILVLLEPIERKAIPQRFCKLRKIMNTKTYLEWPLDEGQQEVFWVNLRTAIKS
Protocol: TLR2 full-length construct (pLenti-cmyc-DDK/tlr2) was purchased from Origene. The cTLR2 (640-784 amino acids) tagged with c-myc was cloned in lenti vector using TOPO TA cloning kit (K5310-00; Life technologies). Briefly, a kozak sequence was incorporated in the upstream of C-terminal TIR domain of TLR2. Next, cTLR2 was cloned in lentivector followed by packaging in lentivirus using HEK293FT cells. After 48 h, media was collected and concentrated with Lenti-X Concentrator (Cat #631231; Clontech). This concentrated lentiviral sup was used for viral transduction. The cTLR2 protein was isolated from HEK293 cell lysate by passing through Myc affinity column. Purified protein was desalted and concentrated by using 10 kD molecular cut-off filtration system.
To analyze the binding of TLR2 with TIDM peptides, surface plasmon resonance (SPR) experiments were carried out using a Reichert 4SPR instrument (Reichert Technologies, Buffalo, NY). Binding assay was performed using a 500 kDa Carboxymethyl Dextran Gold Sensor Slide (Reichert Inc.) for capturing TLR2. Protein immobilization was at a flow rate of 30 μl/min in PBS for 3 min with 0.8 mg/mL solution of TLR2. For analyte association, different concentrations of wtTIDM and mTIDM peptides in PBS running buffer were injected for 2.5 min at a rate of 30 μl/min followed by a dissociation phase of 3 min. The sensor surface was regenerated after each dissociation cycle by allowing buffer to flow at 40 μl/min for a minimum of 15 min. Signals obtained for the TLR2-bound surface were subtracted by signals obtained for the reference cell according to standard procedure using the system software. The concentration dependence of the subtracted signal was analyzed to determine binding affinity of TLR2 with wtTIDM and mTIDM peptides.

[3] = test system: A53T α-syn Tg mice; assay: α-Synucleinopathy in A53T α-syn Tg mice; format: in vivo, mouse; settings: 0.1 mg/kg body wt/d intranasal, 30 d
Protocol: (§1) FIG. 28 (A-B). Intranasal wtTIDM peptide attenuates microglial inflammation in the nigra of A53T α-syn Tg mice. A53T mice (male; 9-month old; n=6 per group) were treated with TIDM peptides via intranasal route at a dose of 0.1 mg/kg body wt/d for 30 d followed by double-label immunofluorescence analysis of nigral sections for Iba-1 and inducible nitric oxide synthase (iNOS) (A). Magnified images of selected area are shown at the bottom row. The iNOS (+ve) cells were counted in two sections of each of six mice per group and presented as cells/mm2.
as §1, with “29” for “28”, “stimulates” for “attenuates”, “expression of arginase-1” for “inflammation”, “arginase-1 (ARG1)” for “inducible nitric oxide synthase (iNOS)”, “ARG-1” for “iNOS”
FIG. 30 (A-C). Intranasal wtTIDM peptide reduces α-synucleinopathy in the nigra of A53T α-syn Tg mice. A53T mice (male; 9-month old; n=6 per group) were treated with TIDM peptides via intranasal route at a dose of 0.1 mg/kg body wt/d for 30 d followed by Western blot analysis of nigral extracts for α-syn (A). Bands were scanned and presented as relative to A53T control (B, monomeric α-syn; C, oligomeric α-syn). Results are mean+SEM of six mice per group.
(§2) FIG. 31 (A-D). Intranasal wtTIDM peptide reduces α-synucleinopathy in the nigra of A53T α-syn Tg mice. A53T mice (male; 9-month old; n=6 per group) were treated with TIDM peptides via intranasal route at a dose of 0.1 mg/kg body wt/d for 30 d followed by double-label immunofluorescence analysis of nigral sections for TH and α-syn (mjfr1 Ab) (A). Magnified images of selected area are shown at the leftmost column. Total area (B), average size (C) and integrated density (D) of α-syn-positive cell bodies were calculated. Five cells from each of two nigral sections of six mice per group were analyzed.
as §2, with “FIG. 32 (A-B).” for “FIG. 31 (A-D).”, “for microglial marker Iba-1” for “for TH”, “column. Mean fluorescence intensity (MFI)” for “column. Total area (B), average size (C) and integrated density (D)”, “of (α-syn+Iba-1)-positive” for “of α-syn-positive”, “bodies was” for “bodies were”
FIG. 33 (A-E). Intranasal wtTIDM peptide improve locomotor activities of A53T α-syn Tg mice. A53T mice (male; 9-month old; n=6 per group) were treated with TIDM peptides via intranasal route at a dose of 0.1 mg/kg body wt/d for 30 d followed by monitoring locomotor activities by the Ethovision XT 13.0 Open Field Activity System (Noldus) (A, track plot; B, moving cumulative duration; C, distance; D, velocity; E, rotorod). Results are mean+SEM of six mice per group.

T1 sequence (Q9QUN7 640-784): as above

SMILES | shift (ΔTm) of melting temperature of cTLR2 [1] [°C] | Kd [2] [µM] | affinity for cTLR2 stronger than mTIDM ([2]; ratio of Kd values) | arginase-1 in the nigra [3] | locomotor activities of A53T mice [3] | microglial expression of iNOS in the nigra [3] | microglial α-syn in the nigra [3] | oligomeric and monomeric α-syn [3] | α-syn inclusion bodies within tyrosine hydroxylase-positive dopaminergic neurons [3] | protective effect in A53T mice (all readouts) [3]
CC[C@H](C)[C@H](NC(=O)[C@H](CCCCN)NC(=O)[C@@H](NC(=O)[C@H](CCC(N)=O)NC(=O)[C@H](CCCNC(=N)N)NC(=O)[C@@H](N)CC(=O)O)[C@@H](C)CC)C(=O)N[C@@H](Cc1c[nH]c2ccccc12)C(=O)N[C@@H](Cc1ccccc1)C(=O)N[C@@H](CCC(N)=O)C(=O)N[C@@H](CC(N)=O)C(=O)N[C@@H](CCCNC(=N)N)C(=O)N[C@@H](CCCNC(=N)N)C(=O)N[C@@H](CCSC)C(=O)N[C@@H](CCCCN)C(=O)N[C@@H](Cc1c[nH]c2ccccc12)C(=O)N[C@@H](CCCCN)C(=O)N[C@@H](CCCCN)C(=O)N1CCC[C@H]1C(=O)NCC(=O)N[C@@H](C)C(=O)N[C@@H](Cc1c[nH]cn1)C(=O)N[C@@H](CCC(N)=O)C(=O)N[C@@H](CCCCN)C(=O)O [wtTIDM, drqikiwfqnrrmkwkkPGAHQK] | 4.96 | 8 | approximately 2.5 times | increase | improved | reduced | decrease | reduction | suppression | 
CC[C@H](C)[C@H](NC(=O)[C@H](CCCCN)NC(=O)[C@@H](NC(=O)[C@H](CCC(N)=O)NC(=O)[C@H](CCCNC(=N)N)NC(=O)[C@@H](N)CC(=O)O)[C@@H](C)CC)C(=O)N[C@@H](Cc1c[nH]c2ccccc12)C(=O)N[C@@H](Cc1ccccc1)C(=O)N[C@@H](CCC(N)=O)C(=O)N[C@@H](CC(N)=O)C(=O)N[C@@H](CCCNC(=N)N)C(=O)N[C@@H](CCCNC(=N)N)C(=O)N[C@@H](CCSC)C(=O)N[C@@H](CCCCN)C(=O)N[C@@H](Cc1c[nH]c2ccccc12)C(=O)N[C@@H](CCCCN)C(=O)N[C@@H](CCCCN)C(=O)N1CCC[C@H]1C(=O)NCC(=O)N[C@@H](Cc1c[nH]c2ccccc12)C(=O)N[C@@H](Cc1c[nH]cn1)C(=O)N[C@@H](CCC(N)=O)C(=O)N[C@@H](CC(=O)O)C(=O)O [mTIDM, drqikiwfqnrrmkwkkPGWHQD] | 0.87 | 19 |  |  |  |  |  |  |  | did not exhibit any such protective effect
